Laboratory results published in US11485720B2, “Anti-infective agents” (University of Dundee, priority 2016, dated 2022).
“And” between values parts separate entries of the source, which are not always exact repeats. Identical values can stand only once. Counter-ions that a name gives are not always drawn.

Key:
Hep G2 = Hep G2 in-vitro cytotoxicity assay; assay type: cell-based; settings: Homo sapiens, HepG2, read-out: Hs HEPG2 pEC50 (converted)
Text: In-vitro cytotoxicity studies can be carried out using Hep G2 (Human hepatocyte carcinoma, HPACC cat. no. 85011430) used as indicators for general mammalian cell toxicity. Hep G2 in-vitro cytotoxicity can be assessed using the assay procedure as described in “Use of a human-derived liver cell line for the detection of cytoprotective, antigenotoxic and cogenotoxic agents”, Volker Mersch-Sundermann, Siegfried Knasmüller, Xin-jiang Wu, Firouz Darroudi, Fekadu Kassie. J. Tox 198 (2004) 329-340) the contents of which are incorporated herein by reference.

[1] = molecular target: T1, Plasmodium falciparum lysyl t-RNA synthetase (Pf-KRS1) (Plasmodium falciparum, UniProt Q8IDJ8); assay: Pf-KRS1 inhibition biochemical assay (Kinase-Glo, ATP depletion); settings: read-out: Pf-KRS pIC50 (converted)
T1 construct: Pf KRS1-; made in house; host or cells: E. coli BL21 (DE3)
Text: Plasmodium falciparum Lysine tRNA Synthetase (KRS1) Biochemical Assay Methodology.
Lysine tRNA Synthetase (KRS1) is an enzyme which catalyses the esterification of L-Lysine to the appropriate transfer ribonucleic acid (tRNA), to form an aminoacyl-tRNA. Once the tRNA is charged, a ribosome transfers the amino acid from the tRNA onto a growing peptide, according to the genetic code.
The substrates of this reaction are L-lysine, and adenosine triphosphate (ATP), the overall reaction is: amino acid+tRNA+ATP→aminoacyl-tRNA+AMP+PPi
In this overall reaction AMP is adenosine monophosphate and PP; is inorganic pyrophosphate. The reaction progression in a biochemical assay can be tracked by the depletion of one of the substrates, in the case of this invention, ATP. This was done using the proprietary assay kit, Kinase Glo® Assay which is a luminescent kinase assay platform suitable for monitoring kinase activities using up to 10 μm ATP which is commercially available from the Promega Corporation of Madison, Wis., USA. The Kinase-Glo® Assay was performed in a single well of a multiwell plate by adding a volume of Kinase-Glo® Reagent equal to the volume of a completed kinase reaction and measuring luminescence. The resulting luminescent signal is correlated with the amount of ATP present and is inversely correlated with the amount of kinase activity. As such by use of this assay methodology a reduction of the luminescent signal is relative to the reduction in ATP as the reaction progresses. A compound which inhibits the action of KRS will show no drop in the luminescent signal from assay controls.
Assays were performed using both Plasmodium falciparum and human KRS to assess any selectivity of various test compounds.
Test compounds were solubilized in DMSO at a top concentration of 10 mM and serially diluted 1 in 3 to achieve a range of final assay concentrations of 50 μM to 2.5 nM in 10 μl reaction volume.
KRS was diluted to a working concentration of 75 nM in assay buffer (25 mM HEPES, 25 mM KOH, 10 mM MgCl2.6H2O, 50 mM KCl), and the following ‘Master Mix’ prepared in assay buffer: 0.1 mg/ml BSA, 250 μM DTT, 200 μM Spermine, 0.05% NP-40, ATP 3 μM for Pf KRS1 (4 μM for Hs KRS1), 0.4 mg/ml tRNA from Yeast, 60 μM L-Lysine, 0.5 U/ml Pyrophosphatase.
Plates were incubated at room temperature for 5 h for Pf KRS (2.5 hrs for HsKRS), then the assay stopped by the addition of 10 μl of The Kinase-Glo® Reagent Assay was performed in a single well of a multiwell plate by adding a volume of Kinase-Glo® Reagent which is commercially available from the Promega Corporation of Madison, Wis., USA. The plates were incubated in the dark for a further 15 mins before being read for luminescence on a BMG PHERAstar® FSX plate reader which is a multi-mode reader for use in high-throughput screening available from BMG Labtech if Cary, N.C., USA. Data were analysed by calculating the percentage inhibition compared to the maximum and minimum assay controls. Concentration effect curves were fitted using nonlinear regression within ActivityBase and IC50 values were determined using standard protocols.

[2] = test system: Plasmodium falciparum strain 3D7; assay: Plasmodium falciparum 3D7 in vitro growth inhibition (SYBRgreen I); assay type: cell-based; settings: Plasmodium falciparum, 3D7; read-out: pEC50 for Pf 3D7 (converted)
Method: Parasite Cultures and Cytotoxicity Assay Methodology for Plasmodium falciparum. […] Growth inhibition of the Plasmodium falciparum cultures was quantified in a 10-point dose response curve with a 1 in 3 dilution series from a top assay concentration of 50 μM. This 384 well plate based fluorescence assay utilises the binding of SYBRgreen I (Thermo Fisher Scientific/Invitrogen cat. no. S7585) to double stranded DNA, which greatly increases the fluorescent signal at 528 nm after excitation at 485 nm. Mefloquine was used as a drug control to monitor the quality of the assay (Z′=0.6 to 0.8, where Z′ is a measure of the discrimination between the positive and negative controls on a screen plate). Dose-response curves were determined from a minimum of 3 independent experiments. Compound bioactivity was expressed as EC50, the effective concentration of compound causing 50% parasite death.

T1 sequence (Q8IDJ8 entry or part of it, looked up, natural form): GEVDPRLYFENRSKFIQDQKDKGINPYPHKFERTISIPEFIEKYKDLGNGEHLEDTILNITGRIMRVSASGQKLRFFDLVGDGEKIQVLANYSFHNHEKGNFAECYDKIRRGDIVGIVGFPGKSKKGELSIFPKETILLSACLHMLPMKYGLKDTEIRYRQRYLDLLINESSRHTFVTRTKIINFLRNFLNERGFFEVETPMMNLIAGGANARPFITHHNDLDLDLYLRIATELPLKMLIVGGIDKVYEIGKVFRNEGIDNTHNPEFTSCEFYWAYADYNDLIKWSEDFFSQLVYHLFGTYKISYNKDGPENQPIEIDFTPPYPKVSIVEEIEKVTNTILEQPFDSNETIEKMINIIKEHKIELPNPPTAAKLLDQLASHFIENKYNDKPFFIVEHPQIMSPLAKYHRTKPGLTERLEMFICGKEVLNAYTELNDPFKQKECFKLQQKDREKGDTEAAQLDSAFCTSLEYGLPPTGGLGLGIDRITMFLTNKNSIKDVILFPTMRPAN

SMILES	EC50 (Hep G2) [nM]	IC50 [1]	EC50 [2] [nM]
O=C(NCC1CCCCC1)c1cc(=O)c2cccc(F)c2o1 [Example 8, N-(cyclohexylmethyl)-8-fluoro-4-oxo-chromene-2-carboxamide]	50100	–	–
O=C(NCC1CCCCO1)c1cc(=O)c2cc(F)ccc2o1 (centres unmarked) [Example 32, 6-fluoro-4-oxo-N-(tetrahydropyran-2-ylmethyl)chromene-2-carboxamide]	–	398 nM and 794 nM	1580
CCc1ccc2oc(C(=O)NCC3(O)CCCCC3)cc(=O)c2c1 [Example 45, 6-ethyl-N-[(1-hydroxycyclohexyl)methyl]-4-oxo-chromene-2-carboxamide]	50100	–	–
O=C(NC[C@@H]1CCCC[C@H]1O)c1cc(=O)c2cc(F)ccc2o1 [Example 57E, 6-Fluoro-N-(((1S,2R)-2-hydroxycyclohexyl)methyl)-4-oxo-4H-chromene-2-carboxamide]	50100	–	–
CCOC(=O)CC1(CNC(=O)c2cc(=O)c3cc(F)ccc3o2)CCCCC1 [Example 57K, Ethyl 2-(1-((6-fluoro-4-oxo-4H-chromene-2-carboxamido)methyl)cyclohexyl)acetate]	–	316 nM	–
O=C(NCC1CCCCC1)c1cc(=O)c2cccc(OCCN3CCNCC3)c2o1 [Example 62, N-(cyclohexylmethyl)-4-oxo-8-(2-piperazin-1-ylethoxy)chromene-2-carboxamide dihydrochloride]	50100	–	–
COc1cccc2c(=O)cc(C(=O)NCC3CCCCC3)oc12 [Example 66, N-(cyclohexylmethyl)-8-methoxy-4-oxo-4H-chromene-2-carboxamide]	–	501 nM	2510
O=C(NCC1(O)CCCC1)c1cc(=O)c2cc(F)cc(O)c2o1 [Example 76F, 6-fluoro-8-hydroxy-N-((1-hydroxycyclopentyl)methyl)-4-oxo-4H-chromene-2-carboxamide]	–	79.4 nM	501
O=C(NCC1(O)CCC(F)(F)CC1)c1cc(=O)c2ccc(F)c(O)c2o1 [Example 80, N-((4,4-difluoro-1-hydroxycyclohexyl)methyl)-7-fluoro-8-hydroxy-4-oxo-4H-chromene-2-carboxamide]	50100	316 nM	–
CS(=O)(=O)Nc1cccc2c(=O)cc(C(=O)NCC3(O)CCCCC3)oc12 [Example 84A, N-[(1-hydroxycyclohexyl)methyl]-8-(methylsulfonamido)-4-oxo-4H-chromene-2-carboxamide]	50100	–	–
COC(=O)c1cccc2c(=O)cc(C(=O)NCC3CCCCC3)oc12 [Example 87, Methyl 2-((cyclohexylmethyl)carbamoyl)-4-oxo-4H-chromene-8-carboxylate]	25100	–	126
NC(=O)c1cccc2c(=O)cc(C(=O)NCC3CCCCC3)oc12 [Example 89, N2-(cyclohexylmethyl)-4-oxo-4H-chromene-2,8-dicarboxamide]	50100	501 nM	–
Cc1c(C(=O)NCC2CCCCC2)oc2ccccc2c1=O [Example 90, N-(cyclohexylmethyl)-3-methyl-4-oxo-4H-chromene-2-carboxamide]	–	1260 nM	5010
Nc1c(F)ccc2c(=O)cc(C(=O)NCC3(O)CCC(F)(F)CC3)oc12 [Example 92, 8-Amino-N-[(4,4-difluoro-1-hydroxy-cyclohexyl)methyl]-7-fluoro-4-oxo-chromene-2-carboxamide]	–	–	79.4
Nc1cc(F)cc2c(=O)cc(C(=O)NCC3(O)CCCCC3)oc12 [Example 96, 8-amino-6-fluoro-N-[(1-hydroxycyclohexyl)methyl]-4-oxo-4H-chromene-2-carboxamide]	–	–	12.6
Nc1cc(F)cc2c(=O)cc(C(=O)NCC3(F)CCCCC3)oc12 [Example 97, 8-amino-6-fluoro-N-[(1-fluorocyclohexyl)methyl]-4-oxo-4H-chromene-2-carboxamide]	20000	–	39.8
Nc1cc(F)cc2c(=O)cc(C(=O)NC[C@H]3CC[C@H](O)CC3)oc12 [Example 98, 8-amino-6-fluoro-N-[(4-hydroxycyclohexyl)methyl]-4-oxo-chromene-2-carboxamide]	50100	–	631
